Assay results taken from PMC10952593, “Synthetic cannabinoid receptor agonists are monoamine oxidase‐A selective inhibitors” (The Febs Journal, 2023).
Where two headings read alike, the source gives them in different places.

Key:
Type in all cases: biochemical
MAO-A [1] = molecular target: T1, MAO-A (Homo sapiens, UniProt P21397); assay: UV/Vis, 4-hydroxyquinoline formation at […] nm
T1 construct: gene MAOA; FAD enzyme; PDB 2Z5X was only the docking model
T1 sequence (P21397 1-527): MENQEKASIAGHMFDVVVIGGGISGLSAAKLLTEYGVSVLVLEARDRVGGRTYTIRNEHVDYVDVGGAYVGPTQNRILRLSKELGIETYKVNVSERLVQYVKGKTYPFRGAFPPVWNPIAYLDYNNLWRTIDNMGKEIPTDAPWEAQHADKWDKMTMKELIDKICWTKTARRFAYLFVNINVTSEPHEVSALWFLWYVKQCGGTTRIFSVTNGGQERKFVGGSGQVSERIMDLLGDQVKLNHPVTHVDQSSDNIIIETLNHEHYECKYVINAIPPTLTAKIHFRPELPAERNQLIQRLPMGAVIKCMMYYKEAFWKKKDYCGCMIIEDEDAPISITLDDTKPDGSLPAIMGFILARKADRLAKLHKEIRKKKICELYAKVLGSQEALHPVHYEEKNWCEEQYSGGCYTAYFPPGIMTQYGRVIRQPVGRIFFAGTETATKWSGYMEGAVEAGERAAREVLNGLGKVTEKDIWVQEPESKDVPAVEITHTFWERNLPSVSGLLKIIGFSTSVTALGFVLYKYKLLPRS

MAO-B [2] = molecular target: T2, MAO-B (Homo sapiens, UniProt P27338); assay: UV/Vis, benzaldehyde formation at […] nm; conditions: 1.5 mM benzylamine, 30 μM MAO-B [sic], 50 mM HEPES pH 7.5, 0.5% Triton X-100, 25 °C; IC50 relative to fitted Imax (Hill-type fit); unreliable
T2 construct: gene MAOB; FAD enzyme; PDB 2V5Z was only the docking model
T2 sequence (P27338 2-520): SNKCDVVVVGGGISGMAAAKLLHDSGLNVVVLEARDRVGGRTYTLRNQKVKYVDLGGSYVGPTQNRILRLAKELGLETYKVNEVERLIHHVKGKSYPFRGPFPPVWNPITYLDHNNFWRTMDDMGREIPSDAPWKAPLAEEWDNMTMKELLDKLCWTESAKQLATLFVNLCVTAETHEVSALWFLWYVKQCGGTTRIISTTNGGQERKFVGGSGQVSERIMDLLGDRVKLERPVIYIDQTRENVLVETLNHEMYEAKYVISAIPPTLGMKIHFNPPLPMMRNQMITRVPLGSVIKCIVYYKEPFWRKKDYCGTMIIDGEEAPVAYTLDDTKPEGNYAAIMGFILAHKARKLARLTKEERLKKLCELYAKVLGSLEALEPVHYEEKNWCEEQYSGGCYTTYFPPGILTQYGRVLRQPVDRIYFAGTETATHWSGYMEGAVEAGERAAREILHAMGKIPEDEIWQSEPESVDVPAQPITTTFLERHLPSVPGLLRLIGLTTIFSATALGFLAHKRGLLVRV

MAO-B [3] = molecular target: T2, MAO-B; assay: UV/Vis, benzaldehyde formation at […] nm
MAO-A [4] = molecular target: T1, MAO-A; assay: steady-state UV/Vis, 4-hydroxyquinoline at […] nm; conditions: 20 μM MAO-A as printed, 50 mM HEPES pH 7.5, 0.5% Triton X-100, 25 °C

Compound	IC50 (MAO-B [3])	further results
COC(=O)C(NC(=O)c1cn(CCCCCF)c2ccccc12)C(C)(C)C (stereo not shown) [compound 2, methyl‐2‐[[1‐(5‐fluoropentyl)indole‐3‐carbonyl]amino]‐3,3‐dimethyl‐butanoate]	–	IC50 (MAO-A [1]): 77.1 ± 1.09 µM; MAO-B / IC50 (MAO-B [2]): 690 ± 420 µM
FCCCCCn1ccc2ccccc21 [compound 6, 1‐(5‐fluoropentyl)‐1H‐Indole]	650 ± 90 µM	–
FCCCCCn1ncc2ccccc21 [compound 7, 1‐(5‐fluoropentyl)‐1H‐Indazole]	620 ± 20 µM	–
CCCCCn1ccc2ccccc21 [compound 8, 1‐pentyl‐1H‐Indole]	630 ± 30 µM	–
CCCCCn1ncc2ccccc21 [compound 9, 1‐pentyl‐1H‐Indazole]	540 ± 30 µM	–
Cn1ccc2ccccc21 [compound 10, 1‐methyl‐1H‐Indole]	500 ± 20 µM	–
NCCC(=O)c1ccccc1N [compound 12, kynuramine]	–	Km (MAO-A [4]): 140 ± 30 µM
N‐[[1‐(5‐fluoropentyl)‐1H‐indazol‐3‐yl]carbonyl]‐3‐methyl‐D‐valine methyl ester [compound 1]	–	IC50 (MAO-A [1]; 1 mM kynuramine, 20 μM MAO-A as printed, 50 mM HEPES pH 7.5, 0.5% Triton X-100, 25 °C, IC50 relative to fitted Imax (Hill-type fit)): 87.8 ± 4.38 µM; IC50 (MAO-B [3]; 1.5 mM benzylamine, 30 μM MAO-B [sic], 50 mM HEPES pH 7.5, 0.5% Triton X-100, 25 °C, IC50 relative to fitted Imax (Hill-type fit)): 420 ± 190 µM
